Values of other authors as cited in patent US20080045604A1, “COMPOSITION AND METHOD FOR FACILITATING THE HEALING OF NON-HEALING AND SLOW-HEALING WOUNDS AND ULCERATIONS” (priority 2004, published 2008).

Assays:
[1] = system: pathogenic molds and dermatophytes; details: reported medicinal properties
[2] = system: Lemma minor; details: Fitoterapia 2005
[3] = system: Neisseria gonorrhoeae; details: Biological Chemistry 2005

COc1cc(/C=C/C(=O)CC(=O)/C=C/c2ccc(O)c(OC)c2)ccc1O [Curcumin, (1E,6E)-1,7-bis(4-hydroxy-3-methoxyphenyl)-1,6-heptadiene-3,5-dione]
antifungal activity / inhibition of pathogenic molds and dermatophytes [1]: no antifungal activity
phytotoxic against Lemma minor [2]: 100%
adherence of bacteria to cells in infection [3]: abolished the adherence of bacteria to cells
